From PubChem BioAssay (NCI)
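Where inhibition never reached the appropriate level, the endpoint shown equals the highest concentration tested. Otherwise, values were interpolated linearly from a five-concentration, 48-hour dose response in 96-well plates. TGI denotes the concentration required for complete inhibition of growth.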

What was measured:
Assay in all cases: NCI-60 cell line screen, 48 h
786-0 renal = tested on: 786-0 renal
A498 renal = tested on: A498 renal
A549 NSCLC = tested on: A549 NSCLC
CAKI-1 renal = tested on: CAKI-1 renal
CCRF-CEM leukemia = tested on: CCRF-CEM leukemia
COLO 205 colon = tested on: COLO 205 colon
DLD-1 colon = tested on: DLD-1 colon
DMS 114 small cell lung = tested on: DMS 114 small cell lung
DMS 273 small cell lung = tested on: DMS 273 small cell lung
EKVX NSCLC = tested on: EKVX NSCLC
HCC-2998 colon = tested on: HCC-2998 colon
HCT-116 colon = tested on: HCT-116 colon
HCT-15 colon = tested on: HCT-15 colon
HL-60(TB) leukemia = tested on: HL-60(TB) leukemia
HOP-18 NSCLC = tested on: HOP-18 NSCLC
HOP-62 NSCLC = tested on: HOP-62 NSCLC
HOP-92 NSCLC = tested on: HOP-92 NSCLC
HT29 colon = tested on: HT29 colon
IGROV1 ovarian = tested on: IGROV1 ovarian
K-562 leukemia = tested on: K-562 leukemia
KM12 colon = tested on: KM12 colon
KM20L2 colon = tested on: KM20L2 colon
LOX IMVI melanoma = tested on: LOX IMVI melanoma
LXFL 529 NSCLC = tested on: LXFL 529 NSCLC
M14 melanoma = tested on: M14 melanoma
M19-MEL melanoma = tested on: M19-MEL melanoma
MALME-3M melanoma = tested on: MALME-3M melanoma
MOLT-4 leukemia = tested on: MOLT-4 leukemia
NCI-H226 lung = tested on: NCI-H226 lung
NCI-H23 lung = tested on: NCI-H23 lung
NCI-H460 lung = tested on: NCI-H460 lung
NCI-H522 lung = tested on: NCI-H522 lung
OVCAR-3 ovarian = tested on: OVCAR-3 ovarian
OVCAR-4 ovarian = tested on: OVCAR-4 ovarian
OVCAR-5 ovarian = tested on: OVCAR-5 ovarian
OVCAR-8 ovarian = tested on: OVCAR-8 ovarian
RPMI-8226 leukemia = tested on: RPMI-8226 leukemia
RXF 393 renal = tested on: RXF 393 renal
SF-268 CNS = tested on: SF-268 CNS
SF-295 CNS = tested on: SF-295 CNS
SF-539 CNS = tested on: SF-539 CNS
SK-MEL-2 melanoma = tested on: SK-MEL-2 melanoma
SK-MEL-28 melanoma = tested on: SK-MEL-28 melanoma
SK-MEL-5 melanoma = tested on: SK-MEL-5 melanoma
SN12C renal = tested on: SN12C renal
SNB-19 CNS = tested on: SNB-19 CNS
SNB-75 CNS = tested on: SNB-75 CNS
SNB-78 CNS = tested on: SNB-78 CNS
SR leukemia = tested on: SR leukemia
SW-620 colon = tested on: SW-620 colon
TK-10 renal = tested on: TK-10 renal
U251 CNS = tested on: U251 CNS
UACC-257 melanoma = tested on: UACC-257 melanoma
UACC-62 melanoma = tested on: UACC-62 melanoma
UO-31 renal = tested on: UO-31 renal
XF 498 CNS = tested on: XF 498 CNS
ACHN renal = tested on: ACHN renal
SK-OV-3 ovarian = tested on: SK-OV-3 ovarian

Compound `CC(=O)NC(C=O)C(O[C@H](C)C(=O)NC(C)C(=O)NC(CCC(N)=O)C(=O)OCc1ccccc1)C(O)C(O)COC(=O)CCNc1c2ccccc2nc2cccc([N+](=O)[O-])c12` (stereo not given in full) has a TGI (786-0 renal) of 18.7 µM, a TGI (A498 renal) greater than 100 µM and a TGI (A549 NSCLC) of 5.13 µM. It also gave a TGI (CAKI-1 renal) of 93.1 µM, a TGI (CCRF-CEM leukemia) of 34.6 µM and a TGI (COLO 205 colon) of 2.74 µM. It also gave a TGI (DLD-1 colon) of 16.5 µM, a TGI (DMS 114 small cell lung) of 10.7 µM and a TGI (DMS 273 small cell lung) of 12 µM. For the same compound, the TGI (EKVX NSCLC) was 22.3 µM, the TGI (HCC-2998 colon) was 2940 nM and the TGI (HCT-116 colon) was 2.69 µM. The TGI (HCT-15 colon) was 30 µM, the TGI (HL-60(TB) leukemia) was 31.8 µM and the TGI (HOP-18 NSCLC) was greater than 100 µM. The TGI (HOP-62 NSCLC) was 10.2 µM, the TGI (HOP-92 NSCLC) was 5.41 µM and the TGI (HT29 colon) was 7.88 µM. It also gave a TGI (IGROV1 ovarian) greater than 100 µM, a TGI (K-562 leukemia) of 9.62 µM and a TGI (KM12 colon) of 3.75 µM. It also gave a TGI (KM20L2 colon) of 5.58 µM, a TGI (LOX IMVI melanoma) of 31.3 µM and a TGI (LXFL 529 NSCLC) of 3.58 µM. The TGI (M14 melanoma) was 4.58 µM, the TGI (M19-MEL melanoma) was 4.02 µM and the TGI (MALME-3M melanoma) was 4.67 µM. It also gave a TGI (MOLT-4 leukemia) of 14.8 µM, a TGI (NCI-H226 lung) of 6.89 µM and a TGI (NCI-H23 lung) of 9.45 µM. For the same compound, the TGI (NCI-H460 lung) was 3.44 µM, the TGI (NCI-H522 lung) was 4.49 µM and the TGI (OVCAR-3 ovarian) was 4.01 µM. It also gave a TGI (OVCAR-4 ovarian) of 25.3 µM, a TGI (OVCAR-5 ovarian) of 13.2 µM and a TGI (OVCAR-8 ovarian) of 18.7 µM. For the same compound, the TGI (RPMI-8226 leukemia) was 4.39 µM, the TGI (RXF 393 renal) was 12 µM and the TGI (SF-268 CNS) was 5.11 µM. For the same compound, the TGI (SF-295 CNS) was 38.5 µM, the TGI (SF-539 CNS) was 20.2 µM and the TGI (SK-MEL-2 melanoma) was 3.05 µM. The TGI (SK-MEL-28 melanoma) was 11.6 µM, the TGI (SK-MEL-5 melanoma) was greater than 100 µM and the TGI (SN12C renal) was 5.62 µM. The TGI (SNB-19 CNS) was 17.4 µM, the TGI (SNB-75 CNS) was 17.8 µM and the TGI (SNB-78 CNS) was 14.4 µM. It also gave a TGI (SR leukemia) of 2690 nM, a TGI (SW-620 colon) of 7.44 µM and a TGI (TK-10 renal) of 53.6 µM. It also gave a TGI (U251 CNS) of 7.14 µM, a TGI (UACC-257 melanoma) of 20.3 µM and a TGI (UACC-62 melanoma) of 10.5 µM. For the same compound, the TGI (UO-31 renal) was 35.9 µM and the TGI (XF 498 CNS) was 3.71 µM.

`CCCCCCCCCCCc1c(O)c(=O)c2c(oc3c(=O)c(CCCCCCCCCCC)c(O)c(=O)c3n2-c2ccc(N(C)C)cc2)c1=O` gave a TGI (786-0 renal) of 33.9 µM, a TGI (A498 renal) of 36.9 µM and a TGI (A549 NSCLC) of 52.4 µM. It also gave a TGI (ACHN renal) of 42.8 µM, a TGI (CAKI-1 renal) of 39.7 µM and a TGI (CCRF-CEM leukemia) of 60.5 µM. The TGI (COLO 205 colon) was 38.1 µM, the TGI (DLD-1 colon) was 50.5 µM and the TGI (DMS 114 small cell lung) was 57.7 µM. It also gave a TGI (DMS 273 small cell lung) of 56.3 µM, a TGI (EKVX NSCLC) of 67.7 µM and a TGI (HCT-116 colon) of 36.6 µM. The TGI (HCT-15 colon) was 35.6 µM, the TGI (HL-60(TB) leukemia) was 90.4 µM and the TGI (HOP-18 NSCLC) was 42.9 µM. The TGI (HOP-62 NSCLC) was 45.9 µM, the TGI (HT29 colon) was 46.8 µM and the TGI (IGROV1 ovarian) was 48.1 µM. It also gave a TGI (K-562 leukemia) greater than 100 µM, a TGI (KM12 colon) of 26.8 µM and a TGI (KM20L2 colon) of 38.5 µM. For the same compound, the TGI (LOX IMVI melanoma) was 50.7 µM, the TGI (LXFL 529 NSCLC) was 47.2 µM and the TGI (M14 melanoma) was 32.8 µM. The TGI (MALME-3M melanoma) was 37.9 µM, the TGI (MOLT-4 leukemia) was greater than 100 µM and the TGI (NCI-H226 lung) was 36.3 µM. The TGI (NCI-H23 lung) was 47.1 µM, the TGI (NCI-H460 lung) was 36.1 µM and the TGI (NCI-H522 lung) was greater than 100 µM. It also gave a TGI (OVCAR-3 ovarian) of 38.6 µM, a TGI (OVCAR-4 ovarian) of 30.7 µM and a TGI (OVCAR-5 ovarian) of 50.9 µM. For the same compound, the TGI (OVCAR-8 ovarian) was 51.5 µM, the TGI (RPMI-8226 leukemia) was greater than 100 µM and the TGI (RXF 393 renal) was 44.4 µM. For the same compound, the TGI (SF-268 CNS) was 58.1 µM, the TGI (SF-295 CNS) was 46.2 µM and the TGI (SF-539 CNS) was 39.7 µM. The TGI (SK-MEL-2 melanoma) was 50.4 µM, the TGI (SK-MEL-28 melanoma) was 40 µM and the TGI (SK-MEL-5 melanoma) was 34 µM. It also gave a TGI (SK-OV-3 ovarian) of 37.9 µM, a TGI (SN12C renal) of 36.8 µM and a TGI (SNB-19 CNS) of 58.9 µM. For the same compound, the TGI (SNB-75 CNS) was 62.4 µM, the TGI (SNB-78 CNS) was greater than 100 µM and the TGI (SR leukemia) was greater than 100000 nM. It also gave a TGI (SW-620 colon) of 68.6 µM, a TGI (TK-10 renal) of 33 µM and a TGI (U251 CNS) of 44.1 µM. For the same compound, the TGI (UACC-257 melanoma) was 40.2 µM, the TGI (UACC-62 melanoma) was 34.3 µM and the TGI (XF 498 CNS) was 37.9 µM.
